{"source": "patent US20050095270A1", "about": "“Drug delivery to the inner ear and methods of using same” (priority 2003, published 2005)", "key": {"[1]": {"system": "hair cells of organ of Corti", "assay": "Mitochondrial function and hair cell survival in organ of Corti treated with cisplatin", "assay_type": "cell-based", "settings": "cisplatin treatment alone (FIGS. 3B, 3E)", "description": "FIGS. 3A-3F are fluorescent micrographs showing mitochondrial function in hair cells. Cells with healthy and functioning mitochondria stain red and are depicted in 3D, 3E and 3F. The presence of hair cells are shown in green and depicted in 3A, 3B and 3C. FIGS. 3A and 3D represent untreated controls. FIGS. 3B and 3E show an organ of Corti treated with the chemotherapeutic agent cisplatin. […] FIGS. 3C and 3F show an organ of Corti pretreated with an adenovector with bcl2 expression followed by cisplatin treatment."}, "[2]": {"system": "inner ear", "assay": "Hearing by auditory brainstem response after round window injection of vector", "assay_type": "in vivo, mouse", "settings": "for protection of hearing / prevention of inner ear trauma by caspase inhibitor: larger volumes of fluid (greater than about 10% of total inner ear volume), hydraulic/mechanical injury"}, "[3]": {"molecular_target": "cathepsin B (Homo sapiens, UniProt P07858)", "settings": "in vitro and in tissue culture cells at concentrations used to demonstrate the involvement of caspases; cited from earlier work"}}, "note": "Where a SMILES comes first, the peptide text is derived from it. The star is where a group is joined. Cbz = O=C(OCc1ccccc1)*; CH2F = FC*"}
{"molecule": "N.N.[Cl][Pt][Cl]", "note": "[cisplatin]", "values": [{"measurement": "hair cells and mitochondrial function in organ of Corti", "setting": "[1]", "value": "loss of cells and loss of mitochondrial function"}]}
{"molecule": "CC(C)[C@H](NC(=O)OCc1ccccc1)C(=O)N[C@@H](C)C(=O)N[C@@H](CC(=O)O)C(=O)CF", "note": "[zVAD-FMK, N-benzyloxycarbonyl-Val-Ala-Asp-fluoromethylketone] (Cbz-Val-Ala-Asp-CH2F)", "values": [{"measurement": "protection of hearing / prevention of inner ear trauma by caspase inhibitor", "setting": "[2]", "value": "can prevent inner ear trauma"}, {"measurement": "protection of hearing / prevention of inner ear trauma by caspase inhibitor", "setting": "[2]; listed as pancaspase inhibitor", "value": "protected hearing"}, {"measurement": "hearing loss with pancaspase inhibitor added to the vector composition", "setting": "[2]; round window, injection volumes up to 3 μL, zVAD-FMK 1 mM, 2 μL with 1 μL vector", "value": "only minimal loss of hearing"}, {"measurement": "cathepsin B activity inhibition", "setting": "[3]", "value": "inhibit efficiently cathepsin B activity"}]}
